Data published in patent US20100098633A1, “SELECTIVE SEPRASE INHIBITORS” (Molecular Insight Pharmaceuticals, Inc., priority 2008, published 2010).

Biological target: T1, recombinant human seprase (rhFAP) (Homo sapiens, UniProt Q12884)
T1 sequence (Q12884 26-760 limits assumed): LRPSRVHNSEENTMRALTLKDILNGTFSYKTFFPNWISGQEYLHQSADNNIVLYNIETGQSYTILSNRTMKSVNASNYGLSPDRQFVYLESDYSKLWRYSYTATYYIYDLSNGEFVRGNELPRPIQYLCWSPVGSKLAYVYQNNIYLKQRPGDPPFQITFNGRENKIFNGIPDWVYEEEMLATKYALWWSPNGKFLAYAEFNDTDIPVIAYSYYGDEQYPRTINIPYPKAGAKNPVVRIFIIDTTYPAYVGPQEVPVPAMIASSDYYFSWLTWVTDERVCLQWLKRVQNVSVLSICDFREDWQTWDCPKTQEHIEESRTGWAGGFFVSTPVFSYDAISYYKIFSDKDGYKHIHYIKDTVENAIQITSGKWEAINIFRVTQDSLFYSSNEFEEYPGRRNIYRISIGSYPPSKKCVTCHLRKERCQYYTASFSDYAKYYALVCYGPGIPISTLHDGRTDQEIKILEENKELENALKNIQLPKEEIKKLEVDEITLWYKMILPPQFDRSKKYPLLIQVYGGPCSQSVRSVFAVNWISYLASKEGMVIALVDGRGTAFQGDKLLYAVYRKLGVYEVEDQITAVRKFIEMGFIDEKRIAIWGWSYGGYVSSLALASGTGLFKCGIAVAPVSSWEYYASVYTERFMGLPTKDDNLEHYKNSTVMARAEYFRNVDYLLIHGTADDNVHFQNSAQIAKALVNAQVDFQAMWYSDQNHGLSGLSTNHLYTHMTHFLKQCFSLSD
Assay: Inhibition of enzymatic activity of recombinant human seprase on Z-Gly-Pro-AMC (fluorescence)
Type: biochemical
Conditions: for IC50: in vitro data against seprase, read-out: FAP (IC50 nM); for Percent of Control: initial velocity normalized to control without test compound, 50 μM Z-Gly-Pro-AMC
Protocol: In vitro assaying of compounds for inhibition of dipeptidyl peptidase activity of seprase and DPP-IV can be achieved following the described in Edosada C. Y. et al. J. Biolog. Chem. 2006, 281, 7437-7444.
Selected test compounds were examined for their ability to inhibit the enzymatic activity of recombinant human seprase (rhFAP) on the substrate, benzyloxycarbonyl-Gly-Pro-7-amido-4-methylcoumarin (Z-Gly-Pro-AMC). In brief, 10 μg rhFAP was added to 50 μM Z-Gly-Pro-AMC in the presence of increasing concentrations of test compound, and enzymatic activity was determined by monitoring fluorescence (Ex. 355 nm/Em. 460 nm). Compound 1051 is the known inhibitor, Cbz-Gly-boroproline. Initial velocity of the reaction was calculated and normalized to control reactions conducted in the absence of test compound.
The inhibition was measured by the half maximal inhibitory concentration (IC50) of a compound of interest. The IC50 indicates how much of a particular compound is needed to inhibit seprase by half.

Substance: Re(CO)3[1-(6-(bis(pyridin-2-ylmethyl)amino)hexanoyl)pyrrolidin-2-ylboronic acid] [Compound 1010]
- IC50: 2540 nM
- Percent of Control (inhibitor 0.005 μM): 90%
- Percent of Control (inhibitor 0.05 μM): 95%
- Percent of Control (inhibitor 0.5 μM): 82%
- Percent of Control (inhibitor 5 μM): 26%
- Percent of Control (inhibitor 50 μM): 0%
- Percent of Control (inhibitor 500 μM): 0%

Substance: Re(CO)3[2-((6-(2-(2-boronopyrrolidin-1-yl)-2-oxoethylamino)-6-oxohexyl)(pyridin-2-ylmethyl)amino)acetic acid] [Compound 1016]
- IC50: 3530 nM
